Holding throughout (experiment): MIC values of wild type strains
Common to all, as to assay type: cell-based

The subject of experiment [1] is Salmonella enterica subsp. enterica serovar Infantis. Particulars: wild type strain Salmonella Infantis; unit assumed.
In experiment [2] the test system is Salmonella paratyphi B (var. L-tartrate+). Conditions: wild type strain Salmonella paratyphi B (var. L-tartrate+); unit assumed.
For the next experiment, the system named is Campylobacter coli WS II. Particulars: wild type strain Campylobacter coli WS II; unit assumed.
Experiment [3] has as its system Campylobacter jejuni WS I. Conditions: wild type strain Campylobacter jejuni WS I; unit assumed.
Another experiment has as its system Campylobacter coli WS I. Conditions: wild type strain Campylobacter coli WS I; unit assumed.
Experiment [4] deals with Campylobacter jejuni WS II. Particulars: wild type strain Campylobacter jejuni WS II; unit assumed.
The test system of experiment [5] is Salmonella enterica subsp. enterica serovar Hadar. Conditions: wild type strain Salmonella Hadar; unit assumed.
Experiment [6] relates to Salmonella enterica subsp. enterica serovar Virchow. Conditions: wild type strain Salmonella Virchow; unit assumed.

In brackets after ≈: the same amount, converted by molar mass.

Broadly, the MIC is the lowest concentration that inhibits growth of the organism. A higher MIC goes with weaker potency.

On to `[H]/N=C(/N)N[C@H]1[C@H](O)[C@@H](O)[C@H](O[C@@H]2O[C@@H](C)[C@](O)(C=O)[C@H]2O[C@@H]2O[C@@H](CO)[C@H](O)[C@@H](O)[C@@H]2NC)[C@@H](N/C(N)=N\[H])[C@@H]1O` [Streptomycin], for which the MIC turned out to be 12.5 µg/mL (≈ 21.5 µM) in experiment [1]; 30 µg/mL (≈ 51.6 µM) in experiment [2]; 1 µg/mL (≈ 1.72 µM) in the experiment on Campylobacter coli WS II; 2 µg/mL (≈ 3.44 µM) in experiment [3]; 1 µg/mL (≈ 1.72 µM) in the experiment with Campylobacter coli WS I; 2 µg/mL (≈ 3.44 µM) in experiment [4]. The MIC stood at 25 µg/mL (≈ 43 µM) in experiment [5] and 12.5 µg/mL (≈ 21.5 µM) in experiment [6].
As for `C[C@@H]1O[C@@H]1P(=O)(O)O` [fosfomycin], the MIC (in the experiment with Campylobacter coli WS II; in experiment [3]; in the experiment with Campylobacter coli WS I; in experiment [4]) was 25 µg/mL (≈ 181 µM) each time.

The values are drawn from patent publication US11904008B2, “Preparation of live vaccines” (priority 2012, dated 2024).
